In patent publication US20150218212A1, “FLUORINATED EPOXYKETONE-BASED TETRAPEPTIDE COMPOUNDS AND USES THEREOF AS PROTEASOME INHIBITORS” (FLUORINOV PHARMA INC., priority 2012, published 2015) one finds Log10GI50, Log10LC50 and Log10TGI50 data, which are given here for 7 compounds.

Structures are written as SMILES.

The subject of one experiment is BT-549. Nature of the experiment: NCI screening panel, BT-549 (Breast Cancer). It counts as cell-based, human. As for the experimental part: (§1) Representative compounds of Formula I were screened using the National Cancer Institute (NCI) screening panel, which consists of a panel of human tumor cell lines, representing leukemia, melanoma, and cancers of the lung, colon, ovary, breast, prostate and renal system.
(§2) After 24 h, two plates of each cell line are fixed in situ with TCA, to represent a measurement of the cell population for each cell line at the time of drug addition (Tz). Experimental drugs are solubilised in dimethyl sulfoxide at 400-fold the desired final maximum test concentration and stored frozen prior to use. At the time of drug addition, an aliquot of frozen concentrate is thawed and diluted to twice the desired final maximum test concentration with complete medium containing 50 μg/mL gentamicin. Additional four, 10-fold or ½ log serial dilutions are made to provide a total of five drug concentrations plus control. Aliquots of 100 μl of these different drug dilutions are added to the appropriate microtiter wells already containing 100 μl of medium, resulting in the required final drug concentrations.
(§3) Following drug addition, the plates are incubated for an additional 48 h at 37° C., 5% CO2, 95% air, and 100% relative humidity. For adherent cells, the assay is terminated by the addition of cold TCA (trichloroacetic acid). Cells are fixed in situ by the gentle addition of 50 μl of cold 50% (w/v) TCA (final concentration, 10% TCA) and incubated for 60 minutes at 4° C. The supernatant is discarded, and the plates are washed five times with tap water and air dried. Sulforhodamine B (SRB) solution (100 μl) at 0.4% (w/v) in 1% acetic acid is added to each well, and plates are incubated for 10 minutes at room temperature. After staining, unbound dye is removed by washing five times with 1% acetic acid and the plates are air dried. Bound stain is subsequently solubilised with 10 mM trizma base, and the absorbance is read on an automated plate reader at a wavelength of 515 nm. For suspension cells, the methodology is the same except that the assay is terminated by fixing settled cells at the bottom of the wells by gently adding 50 μl of 80% TCA (final concentration, 16% TCA). Using the seven absorbance measurements [time zero, (Tz), control growth, (C), and test growth in the presence of drug at the five concentration levels (Ti)], the percentage growth is calculated at each of the drug concentrations levels. Percentage growth inhibition is calculated as: [(Ti−Tz)/(C−Tz)]×100 for concentrations for which Ti>/=Tz and [(Ti−Tz)/Tz]×100 for concentrations for which Ti<Tz.
(§4) Three dose response parameters are calculated for each experimental agent. Growth inhibition of 50% (GI50) is calculated from [(Ti−Tz)/(C−Tz)]×100=50, which is the drug concentration resulting in a 50% reduction in the net protein increase (as measured by SRB staining) in control cells during the drug incubation. The drug concentration resulting in total growth inhibition (TGI) is calculated from Ti=Tz. The LC50 (concentration of drug resulting in a 50% reduction in the measured protein at the end of the drug treatment as compared to that at the beginning) indicating a net loss of cells following treatment is calculated from [(Ti−Tz)/Tz]×100=−50. Values are calculated for each of these three parameters if the level of activity is reached. However, if the effect is not reached or is exceeded, the value for that parameter is expressed as greater or less than the maximum or minimum concentration tested.

Another experiment relates to HCT-15. Nature of the experiment: NCI screening panel, HCT-15 (Colon Cancer). It counts as cell-based, human. As for the experimental part: as §1, §2, §3, §4

In the experiment on BT-549, `CC(C)C[C@H](NC(=O)[C@H](COC(F)F)NC(=O)CN1CCOCC1)C(=O)N[C@@H](COC(F)F)C(=O)N[C@@H](CC(C)C)C(=O)[C@@]1(C)CO1` [Example 1, (2S)—N-[(1S)-1-(difluoromethoxymethyl)-2-[[(1S)-3-methyl-1-[(2R)-2-methyloxirane-2-carbonyl]butyl]amino]-2-oxo-ethyl]-2-[[(2S)-3-(difluoromethoxy)-2-[(2-morpholinoacetyl)amino]propanoyl]amino]-4-methyl-pentanamide] displayed a Log10GI50 of −7.85, a Log10LC50 of −6.61 and a Log10TGI50 of −7.40. In the experiment on HCT-15, this compound showed a Log10GI50 of −5.97, a Log10LC50 of more than −4.00 and a Log10TGI50 of more than −4.00.
In the experiment with BT-549, `CC(C)C[C@H](NC(=O)[C@H](COC(F)F)NC(=O)CN1CCOCC1)C(=O)N[C@@H](Cc1ccccc1)C(=O)N[C@@H](CC(C)C)C(=O)[C@@]1(C)CO1` [Example 2, (2S)-N-[(1S)-1-benzyl-2-[[(1S)-3-methyl-1-[(2R)-2-methyloxirane-2-carbonyl]butyl]-amino]-2-oxo-ethyl]-2-[[(2S)-3-(difluoromethoxy)-2-[(2-morpholinoacetyl)amino]propanoyl]amino]-4-methyl-pentanamide] yielded a Log10GI50 of less than −8.00, a Log10LC50 of −6.84 and a Log10TGI50 of −7.48. In the experiment with HCT-15, this compound had a Log10GI50 of −6.40, a Log10LC50 of more than −4.00 and a Log10TGI50 of −4.66.
As for `CC(C)C[C@H](NC(=O)[C@H](COC(F)F)NC(=O)CN1CCOCC1)C(=O)N[C@@H](Cc1ccccc1)C(=O)N[C@@H](Cc1ccccc1)C(=O)[C@@]1(C)CO1` [Example 3, (2S)-N-[(1S)-1-benzyl-2-[[(1S)-1-benzyl-2-[(2R)-2-methyloxiran-2-yl]-2-oxo-ethyl]amino]-2-oxo-ethyl]-2-[[(2S)-3-(difluoromethoxy)-2-[(2-morpholinoacetyl)-amino]propanoyl]amino]-4-methyl-pentan-amide], in the experiment on BT-549, the Log10GI50 is less than −8.00, the Log10LC50 was −4.21 and the Log10TGI50 is −7.32. Further, in the experiment on HCT-15, the Log10GI50 was −6.51, the Log10LC50 is on record as more than −4.00 and the Log10TGI50 is more than −4.00.
In the experiment on BT-549, `CC(C)C[C@H](NC(=O)[C@H](COC(F)F)NC(=O)CN1CCOCC1)C(=O)N[C@@H](COC(F)F)C(=O)N[C@@H](Cc1ccccc1)C(=O)[C@@]1(C)CO1` [Example 4, (2S)-N-[(1S)-2-[[(1S)-1-benzyl-2-[(2R)-2-methyloxiran-2-yl]-2-oxo-ethyl]amino]-1-(difluoromethoxymethyl)-2-oxo-ethyl]-2-[[(2S)-3-(difluoromethoxy)-2-[(2-mor-pholinoacetyl)amino]propanoyl]amino]-4 methyl-pentanamide] had a Log10GI50 of −7.64 and a Log10TGI50 of −6.91. Besides, in the experiment on HCT-15, the Log10GI50 is recorded as −5.91, the Log10LC50 is more than −4.00 and the Log10TGI50 is reported as −4.62.
In the experiment on BT-549, `CC(C)C[C@H](NC(=O)[C@H](COC(F)F)NC(=O)[C@H](COC(F)F)NC(=O)[C@H](CCc1ccccc1)NC(=O)CN1CCOCC1)C(=O)[C@@]1(C)CO1` [Example 7, (2S)-N-[(1S)-1-(difluoromethoxymethyl)-2-[[(1S)-1-(difluoromethoxymethyl)-2-[[(1S)-3-methyl-1-[(2R)-2-methyloxirane-2-carbo-nyl]butyl]amino]-2-oxo-ethyl]amino]-2-oxo-ethyl]-2-[(2-morpholinoacetyl)amino]-4-phenyl-butanamide] displayed a Log10GI50 of −7.68, a Log10LC50 of more than −4.00 and a Log10TGI50 of −7.07. In the experiment with HCT-15, this compound yielded a Log10GI50 of −5.89, a Log10LC50 of more than −4.00 and a Log10TGI50 of more than −4.00.
On to `CC(C)C[C@H](NC(=O)[C@H](Cc1ccccc1)NC(=O)[C@H](COC(F)F)NC(=O)[C@H](COC(F)F)NC(=O)CN1CCOCC1)C(=O)[C@@]1(C)CO1` [Example 11, (2S)-2-[[(2S)-3-(difluoromethoxy)-2-[[(2S)-3-(difluoromethoxy)-2-[(2-morpholinoacetyl)-amino]propanoyl]amino]propanoyl]amino]-N-[(1S)-3-methyl-1-[(2R)-2-methyloxirane-2-carbonyl]butyl]-3-phenyl-propanamide], for which, in the experiment with BT-549, the Log10GI50 was −7.76, the Log10LC50 is given as more than −4.00 and the Log10TGI50 is −7.06. In the experiment on HCT-15, this compound registered a Log10GI50 of −6.00, a Log10LC50 of more than −4.00 and a Log10TGI50 of −4.42.
In the experiment with BT-549, `CC(C)C[C@H](NC(=O)[C@H](COC(F)F)NC(=O)[C@H](COC(F)F)NC(=O)[C@H](COC(F)F)NC(=O)CN1CCOCC1)C(=O)[C@@]1(C)CO1` [Example 17, (2S)-3-(difluoromethoxy)-N-[(1S)-1-(difluoromethoxymethyl)-2-[[(1S)-1-(difluoro-methoxymethyl)-2-[[(1S)-3-methyl-1-[(2R)-2-methyloxirane-2-carbonyl]butyl]amino]-2-oxo-ethyl]amino]-2-oxo-ethyl]-2-[(2-mor-pholinoacetyl)amino]-propanamide] yielded a Log10GI50 of −7.11, a Log10LC50 of more than −4.00 and a Log10TGI50 of −6.43. In the experiment with HCT-15, this compound registered a Log10GI50 of −5.28, a Log10LC50 of more than −4.00 and a Log10TGI50 of more than −4.00.
